Row | melting point | Compound
1 | 58 to 62.6 °C | O=[N+]([O-])c1cc(OC2CCCC2)c(Cl)cc1F
2 | 185 to 187 °C | COc1ccc([N+](=O)[O-])c(OCC(N)=O)c1
3 | 73 to 75 °C | CCNC(=O)n1nc(Oc2cc(OCC)ccc2[N+](=O)[O-])cc1C
4 | 70 to 71 °C | OCc1ccc(C2=CCCCC2)cc1
5 | 137 °C | CN(C)c1nc2c(N)cc(Br)cc2n1C
6 | 94 to 94.5 °C | CCOC(=O)[C@@H]1C[C@H]1Sc1nc2ccccc2cc1-c1ccccc1 (relative stereo)
7 | 127 to 129 °C | Cn1c(=O)cnn(-c2cc(OCC#CBr)c(Cl)cc2F)c1=O
8 | 226 to 227 °C | O=C1NCCN1c1ccc(S(=O)(=O)Oc2ccc3[nH]ccc3c2)cc1
9 | 105 to 111 °C | CCCCCCSc1nn2c(=O)c(Cl)c(F)nc2s1
10 | 180 to 181 °C | COc1ccc(N2CCN(c3c(C)c4c(c(C)c3Br)OC(C)(C)C4)CC2)cc1
11 | 156 to 158 °C | CCCc1c(OCCC2Cc3cc(C(=O)CCC(=O)O)ccc3O2)ccc(C(C)=O)c1O (stereo unspecified)
12 | 96 to 97 °C | CN(C)CCCn1c(-c2ccc(C#N)cc2)cc2c1CCCCC2
13 | 59 to 60 °C | CC12CCC1C(=O)OC2=O (stereo unspecified)
14 | 150 to 152 °C | O=C(c1ccc(Br)cc1)C(Br)C(Br)c1cccc(Br)c1 (stereo unspecified)
15 | 101 to 102 °C | C(=C\c1nc(COc2ccc(CCCCCn3ccnc3)cc2)co1)/c1ccccc1
16 | 118 to 119 °C | COc1cc(C=O)c(Br)c(Cl)c1OC
17 | 63 °C | CN1CC=CC(c2cc3ccccc3o2)C1 (stereo unspecified)
18 | 106 °C | Cc1ccc(S(=O)(=O)N2CCC[C@H](CC#N)c3ccccc32)cc1
19 | 245 °C | CN(C)C(=O)N1CCC2(CC1)CN=C(c1cc3cccc(N(C)S(=O)(=O)c4cccs4)c3[nH]1)S2
20 | 167 to 169 °C | COCCOCc1c(CN(C)CC(O)c2c[nH]c3ccccc23)sc2c(=O)c(C(=O)NCc3ccc(Cl)cc3)cn(C)c12 (stereo unspecified)
21 | 139 to 140 °C | COc1cc(Nc2nccc(-c3ccc(N4CCN[C@@H](C)C4)nc3)n2)cc(OC)c1OC
22 | 79 to 81 °C | COc1nc(C(F)(F)C(F)(F)F)cc(=O)n1-c1cc(OC(C)C)c(Cl)cc1F
23 | 154 to 155 °C | CCCCOc1ccc2[nH]c3c([N+](=O)[O-])ccc(Cl)c3c(=O)c2c1
24 | 98 to 100 °C | OCC(O)Cc1ncc[nH]1 (stereo unspecified)

Row | melting point | Compound
25 | 104 to 106 °C | O=c1oc2c(Br)cc(Br)cc2s1
26 | 229 to 231 °C | Cn1nc(C(=O)NCc2ccc(Cl)cc2)c(=O)c2cc(C#CCO)ccc21
27 | 143 to 144 °C | C=CCc1cc(C=CC(=O)O)ccc1OC(C)=O
28 | 105 to 106 °C | Cc1ccc(Sc2ccccc2C(=O)N(C)C)c([N+](=O)[O-])c1
29 | 265 to 266 °C | O=C(Nc1ccc(-c2cnc(-c3ccc(NC(=O)c4c(F)c(F)c(F)c(F)c4F)cc3)[nH]2)cc1)c1cccnc1
30 | 79 to 80 °C | CS(=O)(=O)Nc1cc(C(O)CNCCCCCCOCC/C=C/c2ccc(F)cc2)ccc1O (stereo unspecified)
31 | 76 to 82 °C | Cc1ccc(S(=O)(=S)OCCCCCCCCCCOS(=O)(=S)c2ccc(C)cc2)cc1 (stereo unspecified)
32 | 54 to 58 °C | CC(C)C(=O)O[C@H]1[C@H](C)OC(=O)[C@@H](NC(=O)OC(C)(C)C)COC(=O)[C@@H]1CSc1ccccn1
33 | 158 °C | COc1ccccc1C1(O)C(O)CC(c2ccccc2)(c2ccccc2)C2CN(C(=O)Cc3ccccc3OCc3ccccc3)CC21 (stereo unspecified)
34 | 91 to 95 °C | CSc1ccc(/C(=C/CO)c2ccc(I)cc2)cc1
35 | 80 to 82 °C | COc1cn(Cc2cccc3ccccc23)c(=O)o1
36 | 152 °C | COc1ccc(Cl)cc1C(=O)Nc1ccc(CC(=O)O)cc1
37 | 148 °C | CCNCCCOc1ccc(-c2ccc(C(=O)OCC)cc2)cc1-c1ccc2c(c1)C(C)(C)CCC2(C)C
38 | 115 to 116 °C | Sc1c(Cl)cc(Cl)c(Cl)c1S
39 | 152 to 153 °C | CCOP(=O)(Cc1ccc(Oc2sc(C(N)=O)c3c2-c2c(cnn2CC)CC3)cc1)OCC
40 | 108 °C | C=CCOc1ccc2ccc(NC(=O)c3ccc(OC)cc3)nc2n1
41 | 132 to 134 °C | CC(C)(C)C(=O)c1[nH]c2cc(Cl)ccc2c1N
42 | 122 °C | ClCc1c(-c2ccccc2)c(-c2ccccc2)nn1-c1ccccc1
43 | 169 to 170 °C | CC(CC(=O)O)C(=O)NC1(C(=O)O)CCCC1 (stereo unspecified)
44 | 51 to 52 °C | CCCCc1c(C=O)cc(OC)c2ccccc12
45 | 170 to 171 °C | CC(C)(C)OC(=O)N1CC(CO)c2c1cc(OCc1ccccc1)c1ncccc21 (stereo unspecified)
46 | 74 to 75 °C | CC(=O)OC1c2ccccc2C(=O)N1CCO[N+](=O)[O-] (stereo unspecified)
47 | 134 to 136 °C | N#CNC(=NCCN1CCC(C(=O)c2ccc(F)cc2)CC1)Oc1ccccc1
48 | 200 to 202 °C | Cc1ccc(S(=O)(=O)NCC(CC(=O)Nc2ccccc2)c2ccc(Cl)cc2)cc1 (stereo unspecified)

Row | melting point | Compound
49 | 40 °C | C=CCOC(=O)CCc1cc(C(C)(C)C)c(O)c(C(C)(C)C)c1
50 | 115 to 117 °C | CN1CCN(c2cccc3ccc(NCc4ccccc4)cc23)CC1
51 | 40 °C | O=[N+]([O-])c1cc(F)cc(I)c1O
52 | 212 to 213 °C | Cc1cc(C)cc(-c2[nH]c3ccc(C(=O)O)cc3c2CCN(CCCCc2ccc(NS(C)(=O)=O)cc2)C(=O)OCc2ccccc2)c1
53 | 271 to 272 °C | Cc1oc(-c2ccccc2)nc1COc1ccc2c(c1)CCC(C=C1SC(=O)NC1=O)=C2
54 | 144 to 146 °C | O=CC1c2ccccc2C(C=O)c2c(Cl)cccc21 (stereo unspecified)
55 | 160 to 163 °C | COc1cc2c(cc1OC)C1=NNC(c3ccc(Cl)cc3)C1CCC2 (stereo unspecified)
56 | 252 to 254 °C | COC(=O)CNC(=O)c1cc2cc(Cl)ccc2[nH]1
57 | 75 to 78 °C | COC(=O)C(C)N(C(=O)CCl)c1c(C)cccc1Cl (stereo unspecified)
58 | 179 to 183 °C | CN1CCC(C2(O)c3ccccc3Oc3ccc(C(F)(F)F)cc32)CC1 (stereo unspecified)
59 | 207 to 210 °C | CC(=O)Nc1ccc2c(c1)CCC(=CN(C)C)C2=O
60 | 184 to 185 °C | N#Cc1ccc(C2(COc3cccc4cc(NS(=O)(=O)C(F)(F)F)ccc34)N=CNO2)cc1 (stereo unspecified)
61 | 137 to 138 °C | CCCCCc1nc2c(N)nc3ccccc3c2n1CCCCNS(C)(=O)=O
62 | 142 to 144 °C | COc1cc(COc2ccc(N)nn2)cc(OC)c1OC
63 | 162 to 163 °C | CN1CCN(c2cccc3ccc(C(O)c4ccccc4)cc23)CC1 (stereo unspecified)
64 | 112 °C | COc1cc(C=CC(=O)c2ccc(OC)c(OC)c2OC)cc(OC)c1
65 | 203 to 207 °C | Ic1ccc2c(c1)Cc1cc(I)ccc1-2
66 | 224 to 227 °C | O=S(Cc1cccc(O)c1)c1nc2cnccc2[nH]1 (stereo unspecified)
67 | 158 to 159 °C | Cc1nc(N2CCc3ccccc3CC2)c(C#N)c(=O)n1CC=C(F)F
68 | 210 to 212 °C | Oc1ccc(-c2nc(Br)c[nH]2)cc1
69 | 155 to 156 °C | CC(C)(C)OC(=O)N1C(=O)O[C@@H](c2ccc(F)cc2)[C@H]1Cc1ccc(C(F)(F)F)cc1 (racemic)
70 | > 200 °C | Cc1cc(Cc2ccccc2)c(NS(=O)(=O)Cc2ccccc2)c(=O)n1CC(=O)O
71 | 237 to 238 °C | CSc1nnc2c(=O)[nH]c(-c3ccccc3OCC(C)C)nc2n1
72 | 100 °C | O=[N+]([O-])c1ccc2oc(Cc3ccccc3)cc2c1

Row | melting point | Compound
73 | 194 to 195 °C | CCn1cc(C(=O)O)c(=O)c2cc(F)c(-c3csc(CN)n3)c(NC)c21
74 | 145 to 146 °C | Cn1cnc2ccc(-c3nnc(CCc4cccc(F)c4)o3)cc21
75 | 135 to 136 °C | COCc1ccc(Oc2cc(OC)c3[nH]c(C4=NCC(CC(N)=O)S4)cc3c2)cn1 (stereo unspecified)
76 | 261 to 263 °C | CNc1cc(NS(=O)(=O)c2ccc(F)cc2)nc(NC)n1
77 | 165 to 166 °C | N#CC(CC(=O)O)(c1ccc(F)cc1)c1ccc(F)cc1
78 | 130 to 131 °C | CCc1cccc(CC(=O)O)c1OCCCc1cn(-c2ccc(C(F)(F)F)cn2)nc1C(CC)CC
79 | 144 to 145 °C | CC(=O)OC12CC3CC(CC(C3)C1)C2
80 | 116 to 118 °C | COc1cc(COc2nn(-c3ccccc3)cc2/C=C/c2coc(C(C)C)n2)ccc1OCc1nc(-c2ccc(CC(=O)O)cc2)oc1C
81 | 246 to 247 °C | N#Cc1c(Cl)n(C2OC(CF)C(O)C2O)c2cc(Cl)c(Cl)cc12 (stereo unspecified)
82 | 218 to 220 °C | COC(=O)c1ccc(NC=O)nc1
83 | 111 °C | CCN(CC)C(=O)CNc1cc(N)ccc1OC
84 | 116 to 158 °C | Cc1c(C(N)=O)oc2c(C(=O)NCCCN3CCN(c4cc(Cl)ccc4O)CC3)cccc2c1=O
85 | 119 to 121 °C | O=C(O)C(OCc1ccc(-c2ccc(Cl)cc2)cc1)c1ccccc1 (stereo unspecified)
86 | 83 °C | C[Si](C)(C)c1cn(Cc2ccc(C#N)cc2)nn1
87 | 179 to 181 °C | OC(CN1CCC(c2noc3cc(F)ccc23)CC1)CN1CCc2ccccc2C1 (stereo unspecified)
88 | 158 °C | COc1ccnc2c1C(=O)c1c(-c3ccccc3NC(=O)C(F)(F)F)ccnc1C2=O
89 | 62 to 66 °C | CCOC(=O)c1sc(C)nc1S
90 | 286 to 288 °C | CCC(C)C(C)C(=O)Nc1ccc2ncn3c(=O)c(C(=O)O)cnc3c2c1 (stereo unspecified)
91 | 104 to 106 °C | O=C(c1ccc(Cc2ccc(F)cc2)o1)c1oc(CO)cc(=O)c1OCc1ccccc1
92 | 126 to 127 °C | C#CCn1c(I)cc(C(O)CC)c(C)c1=O (stereo unspecified)
93 | 188 to 189 °C | CN(C)c1ncc(O)c(-c2ccc(Cl)c(Cl)c2)n1
94 | 193 to 194 °C | Cc1ccc(OCC(=O)O)c(C(=O)NCc2cccc([N+](=O)[O-])c2)c1
95 | 220 to 222 °C | O=C(NCCc1ccccn1)c1ccc(S(=O)(=O)Nc2cccc3c(Cl)c[nH]c23)cc1
96 | 182 to 184 °C | CCS(=O)(=O)c1ccc(C(=O)NCc2ccc3c(c2)C(=O)N(C2CCC(=O)NC2=O)C3=O)cc1 (stereo unspecified)

Row | Compound | melting point
97 | c1ccc2c(c1)CNC1CC2c2ccccc21 (stereo unspecified) | 115 to 117 °C
98 | O=C(O)c1cccc(CN2CCC(c3cn(CCc4ccccn4)c4ccccc34)CC2)c1 | 141 to 142 °C
99 | COc1ccc2[nH]cc(CC(C)(C)N)c2c1 | 114 to 116 °C
100 | Cc1cc(NC(=O)C(C)(O)COc2ccc(CCCl)c(F)c2)ccc1[N+](=O)[O-] (stereo unspecified) | 77 to 79 °C
101 | C=CC(=O)Nc1cccc(-c2ccnc3c(C(=O)c4cccs4)cnn23)c1 | 192 to 194 °C

Source: a melting point compilation (Tetko et al.; mined from patent text by program, amines drawn as free bases though some values may be those of a salt)
